We go through 27 compounds from patent US7915297B2, “Isoxazole derivatives and use thereof” (SK Holdings Co., Ltd., priority 2005, dated 2011).

In assay [1] the test system is Wnt/β-catenin signaling (β-catenin activity) in HEK293 cell line. Nature of the assay: Cell-based Wnt agonist screening, TCF luciferase reporter, HEK293 (TCF-FL). Further details: species or system human. To be noted: % of LiCl (20 mM); for Emax at 30 µM / Emax at 120 µM / Emax at 15 µM: Homo sapiens, HEK293, 24 h, 24 h, read-out: Max. Activity (%); for Emax at 30 µM: Conc. 30 μM; for Emax at 120 µM: Conc. 120 μM; for Emax at 15 µM: Conc. 15 μM. An excerpt:
(§1) In order to measure the in vitro activity of compounds of the present invention, two human cancer cell lines, HEK293 and SW480, which have intact Wnt signaling and show APC gene mutation in the Wnt signaling pathway, respectively, were used.
(§2) For evaluating the activity of wnt/β-catenin signaling in the cancer cell lines, gene as illustrated in FIG. 1 having β-catenin-binding sites of the Tcf/Lef transcriptional control protein (5 sites of TCF, 5X TCF) and having a fire fly luficerase as a marker protein ascertainable the activity of 5X TCF was introduced into the cells. Treatment with G418 led monoclones of the cell lines, in which the genes were permanently expressed, so as to construct a cell-based Wnt agonist screening system. […] For comparison with the activity of the isoxazole derivatives as Wnt agonists, lithium chloride (LiCl), acting as a positive control for the cell-based Wnt agonist screening system, was used to determine the expression level of the luciferase, and the results are shown in FIG. 3.
(§3) The cell lines, in which a cell-based Wnt agonist screening system was constructed, were cultured in RPMI 1640 media supplemented with penicillin-streptomycin (100 Units/mL) and heat-inactivated 5% fetal bovine serum under standard culture conditions (5% CO2, 37° C., 100% relative humidity). […] The suspension was diluted with the same medium to adjust the cell count to 8,000˜15,000 cells per well and was moved then in a 96-well microtiter plate. After being incubated for 24 hrs, the cells were treated with various concentrations of the isoxazole derivatives synthesized in Preparation Examples. Incubation for an additional 24 hours was followed by the quantitative analysis of luciferase activity using a Luciferase Assay kit (Promega, U.S.A.) according to the protocol described in the manual provided by the manufacturer. Data on the activities of the isoxazole derivatives thus synthesized are given in Tables 34 to 43, and are expressed as percentages relative to the activity of the positive control LiCl (20 mM), a well-known agonist of Wnt signaling.
(In a reporter assay the amount or activity of a reporter protein is the signal.)

Assay [2] relates to Wnt/β-catenin signaling (β-catenin activity) in SW480 cell line. Nature of the assay: Cell-based Wnt agonist screening, TCF luciferase reporter, SW480 (TCF-FL). Details: species or system human. To be noted: % of LiCl (20 mM); for Emax at 30 µM: Con. 30 μM; for Emax at 120 µM: Con. 120 μM.
From the text: as §1, §2, §3

Where [3] appears, read: Homo sapiens, 24 h, read-out: Max. Activity (%).

As for `O=C(NCCc1cccnc1)c1cc(-c2cccc(O)c2)on1` [Derivative (110), 5-(3-hydroxy-phenyl)-isoxazole-3-carboxylic acid (2-pyridin-3-yl-ethyl)-amide], the Emax at 30 µM in assay [1] and in assay [2] (setting [3]) was below 20% in each case.
For the compound `O=C(NCCn1ccnc1)c1cc(-c2ccccc2)on1` [Derivative (69), 5-phenyl-isoxazole-3-carboxylic acid (2-imidazol-1-yl-ethyl)-amide], the Emax at 30 µM in assay [1] and in assay [2] (setting [3]) was below 20% throughout.
Turning to `O=C(NCCCn1ccnc1)c1cc(-c2ccccc2)on1` [Derivative (68), 5-phenyl-isoxazole-3-carboxylic acid (3-imidazol-1-yl-propyl)-amide], in assay [1], the Emax at 30 µM was 47%. Further, the Emax at 60 µM in assay [2] (Homo sapiens, 24 h, Con. 60 μM, read-out: Max. Activity (%)) worked out at 486%.
For the compound `Cc1c(C(=O)NCCCn2ccnc2)noc1-c1ccco1` [Derivative (65), 5-furan-2-yl-4-methyl-isoxazole-3-carboxylic acid (3-imidazol-1-yl-propyl)-amide], the Emax at 30 µM in assay [1] and in assay [2] (setting [3]) was below 20% throughout.
For `Cc1cn(CCNC(=O)c2cc(-c3ccco3)on2)cn1` [Derivative (37), 5-furan-2-yl-isoxazole-3-carboxylic acid [2-(4-methyl-imidazol-1-yl)-ethyl]-amide], the Emax at 120 µM in assay [1] is 44%; in assay [2] (setting [3]), 296%.
In the case of `O=C(NCCn1cncn1)c1cc(-c2ccc(F)cc2)on1` [Derivative (88), 5-(4-fluoro-phenyl)-isoxazole-3-carboxylic acid (2-[1,2,4]triazol-1-yl-ethyl)-amide], the Emax at 120 µM in assay [1] and in assay [2] (setting [3]) was 600% in each case.
Regarding `Cc1cn(CCCNC(=O)c2cc(-c3ccco3)on2)cn1` [Derivative (56), 5-furan-2-yl-isoxazole-3-carboxylic acid [3-(4-methyl-imidazol-1-yl)-propyl]-amide], in assay [1], the Emax at 15 µM was 58% and the Emax at 30 µM is below 20%. Besides, in assay [2] (Homo sapiens, 24 h, Con. 600 μM, read-out: Max. Activity (%)), the Emax at 600 µM is 650%.
`O=C(NCCCn1ccnc1)c1cc(-c2ccncc2)on1` [Derivative (77), 5-pyridin-4-yl-isoxazole-3-carboxylic acid (3-imidazol-1-yl-propyl)-amide]: the Emax at 30 µM in assay [1] and in assay [2] (setting [3]) was below 20% throughout.
For `O=C(NCCc1ccc2c(c1)OCO2)c1cc(-c2ccco2)on1` [Derivative (29), 5-furan-2-yl-isoxazole-3-carboxylic acid (2-benzo[1,3]dioxol-5-yl-ethyl)-amide], the Emax at 30 µM in assay [1] and in assay [2] (setting [3]) was below 20% in each case.
For `O=C(NCc1ccccn1)c1cc(-c2ccco2)on1` [Derivative (7), 5-furan-2-yl-isoxazole-3-carboxylic acid (pyridin-2-ylmethyl)-amide], the Emax at 30 µM in assay [1] and in assay [2] (setting [3]) was below 20% each time.
As for `COc1cccc(-c2cc(C(=O)NCCCn3ccnc3)no2)c1` [Derivative (100), 5-(3-methoxy-phenyl)-isoxazole-3-carboxylic acid (3-imidazol-1-yl-propyl)-amide], the Emax at 120 µM in assay [1] and in assay [2] (setting [3]) was 59% each time.
On to `O=C(NCCCn1ccnc1)c1cc(-c2ccccc2[N+](=O)[O-])on1` [Derivative (112), 5-(2-nitro-phenyl)-isoxazole-3-carboxylic acid (3-imidazol-1-yl-propyl)-amide], for which the Emax at 120 µM in assay [1] and in assay [2] (setting [3]) was 51% in each case.
Turning to `O=C(NCCc1ccc([N+](=O)[O-])cc1)c1cc(-c2ccco2)on1` [Derivative (27), 5-furan-2-yl-isoxazole-3-carboxylic acid [2-(4-nitro-phenyl)-ethyl]-amide], the Emax at 30 µM in assay [1] and in assay [2] (setting [3]) was below 20% in each case.
Consider `Nc1ccc(CCNC(=O)c2cc(-c3ccco3)on2)cc1` [Derivative (26), 5-furan-2-yl-isoxazole-3-carboxylic acid [2-(4-amino-phenyl)-ethyl]-amide], for which the Emax at 30 µM in assay [1] and in assay [2] (setting [3]) was below 20% each time.
`[Cl-].[Li+]` [LiCl, lithium chloride, reference compound]: the “Max. Activity (%)” value in assay [1] (Conc. 20000 μM) and in assay [2] (Con. 20000 μM) was 100% in each case.
As for `Nc1cccc(-c2cc(C(=O)NCCCn3ccnc3)no2)c1` [Derivative (119), 5-(3-amino-phenyl)-isoxazole-3-carboxylic acid (3-imidazol-1-yl-propyl)-amide], in assay [1], the Emax at 30 µM is below 20% and the Emax at 120 µM was determined as 43%. In assay [2] (setting [3]), the Emax at 120 µM was found to be 43%.
`O=C(NCCCn1ccnc1)c1noc(-c2ccco2)c1Cc1ccccc1` [Derivative (67), 4-benzyl-5-furan-2-yl-isoxazole-3-carboxylic acid (3-imidazol-1-yl-propyl)-amide]: the Emax at 30 µM in assay [1] and in assay [2] (setting [3]) was below 20% in each case.
As for `O=C(NCCCn1ccnc1)c1cc(-c2ccccc2F)on1` [Derivative (81), 5-(2-fluoro-phenyl)-isoxazole-3-carboxylic acid (3-imidazol-1-yl-propyl)-amide], the Emax at 120 µM in assay [1] and in assay [2] (setting [3]) was 869% each time.
`O=C(NCc1cccnc1)c1cc(-c2ccco2)on1` [Derivative (8), 5-furan-2-yl-isoxazole-3-carboxylic acid (pyridin-3-ylmethyl)-amide]: the Emax at 30 µM in assay [1] and in assay [2] (setting [3]) was below 20% throughout.
On to `O=C(NCCc1cccc(O)c1)c1cc(-c2ccco2)on1` [Derivative (23), 5-furan-2-yl-isoxazole-3-carboxylic acid [2-(3-hydroxy-phenyl)-ethyl]-amide], for which the Emax at 30 µM in assay [1] and in assay [2] (setting [3]) was below 20% throughout.
As to `Nc1ccccc1NC(=O)c1cc(-c2ccco2)on1` [Derivative (3), 5-furan-2-yl-isoxazole-3-carboxylic acid (2-amino-phenyl)-amide], in assay [1], the Emax at 30 µM was below 20%. In addition, the Emax at 40 µM in assay [2] (Homo sapiens, 24 h, Con. 40 μM, read-out: Max. Activity (%)) was 331%.
For `O=C(NCCc1ccncc1)c1cc(-c2cccc(O)c2)on1` [Derivative (108), 5-(3-hydroxy-phenyl)-isoxazole-3-carboxylic acid (2-pyridin-4-yl-ethyl)-amide], in assay [1], the Emax at 15 µM came to 600% and the Emax at 30 µM was below 20%. Moreover, in assay [2] (Homo sapiens, 24 h, Con. 15 μM, read-out: Max. Activity (%)), the Emax at 15 µM was 600%.
Regarding `O=C(NCCc1ccc(Br)cc1)c1cc(-c2ccco2)on1` [Derivative (25), 5-furan-2-yl-isoxazole-3-carboxylic acid [2-(4-bromo-phenyl)-ethyl]-amide], in assay [1], the Emax at 30 µM was below 20%. In addition, the Emax at 120 µM in assay [2] (setting [3]) is 223%.
Regarding `COC(=O)c1cn(CCCNC(=O)c2cc(-c3ccco3)on2)cn1` [Derivative (58), 1-{3-[(5-furan-2-yl-isoxazole-3-carbonyl)-amino]-propyl}-1H-imidazole-4-carboxylic acid methyl ester], the Emax at 30 µM in assay [1] was below 20%; in assay [2] (setting [3]) it was 270%.
For the compound `O=C(NCCCn1cncn1)c1cc(-c2ccc(F)cc2)on1` [Derivative (84), 5-(4-fluoro-phenyl)-isoxazole-3-carboxylic acid (3-[1,2,4]triazol-1-yl-propyl)-amide], the Emax at 30 µM in assay [1] and in assay [2] (setting [3]) was 907% throughout.
For `O=C(NCCCn1ccnn1)c1cc(-c2ccco2)on1` [Derivative (49), 5-furan-2-yl-isoxazole-3-carboxylic acid (3-[1,2,3]triazol-1-yl-propyl)-amide], the Emax at 30 µM in assay [1] and in assay [2] (setting [3]) was below 20% throughout.
`O=C(NCCn1ncnn1)c1cc(-c2ccc(F)cc2)on1` [Derivative (91), 5-(4-fluoro-phenyl)-isoxazole-3-carboxylic acid (2-tetrazol-2-yl-ethyl)-amide]: the Emax at 30 µM in assay [1] and in assay [2] (setting [3]) was 103% throughout.
